For orientation: IC50 means the concentration that gives 50% inhibition.

Holding throughout (type): biochemical
For one test, the target named is T1, mouse 11-beta HSD-1 (Mus musculus, UniProt P50172).
T1 construct: Mice and Rat liver microsome fractions were purchased from TEBU; tissue TEBU; host or cells: mouse liver microsome fractions
The experiment in a line: 11beta-HSD1 enzyme assay, mice liver microsome fractions (HTRF cortisol). Particulars: for IC50: read-out: Inhibition of mouse 11-beta HSD-1 IC50. The method, then:
(§1) Human recombinant 11 beta-hydroxysteroid dehydrogenase type 1 (11 beta-HSD1) and type 2 (11beta-HSD2) enzymes were expressed in E. Coli. Mice and Rat liver microsome fractions were purchased from TEBU.
(§2) Reactions were initiated by addition of 10 μl 11beta-HSD1 (3 μg) from E. Coli, either as microsome fractions from rat and mice liver (2,5 μg). Following mixing, the plates were shaken for 150 minutes at 37° C. The reactions were terminated with 10 μl Acid-18beta glycyrrhetinic stop solution. Determinations of cortisol levels in 11 beta-HSD1 preparations were monitored by HTRF (HTRF cortisol assay from C is bio international).
Background: Liver microsomes are vesicles of endoplasmic reticulum, rich in cytochrome P450 enzymes.

The target in another test is T2, rat 11-beta HSD-1 (Rattus norvegicus, UniProt P16232).
T2 construct: Mice and Rat liver microsome fractions were purchased from TEBU; tissue TEBU; host or cells: rat liver microsome fractions
Kind of test: 11beta-HSD1 enzyme assay, rat liver microsome fractions (HTRF cortisol). The note with it: for IC50: read-out: Inhibition of rat 11-beta HSD-1 IC50. As to the method:
as §1, §2

For the next test, the target named is T3, human 11-beta HSD-1 (Homo sapiens, UniProt P28845).
T3 construct: made in house; host or cells: E. coli
Kind of test: 11beta-HSD1 enzyme assay, human recombinant enzyme (HTRF cortisol). Particulars: for IC50: human recombinant enzyme from E. Coli, cortisone/NADPH, 150 minutes at 37° C., read-out: Inhibition of human 11-beta HSD-1 IC50; for Selectivity Ratio human HSD2/HSD1: ratio of IC50 human HSD2 to human HSD1. As to the method:
as §1, §2

The target in another test is T4, human 11-beta HSD-2 (Homo sapiens, UniProt P80365).
T4 construct: made in house; host or cells: E. coli
T4 sequence (P80365 1-405): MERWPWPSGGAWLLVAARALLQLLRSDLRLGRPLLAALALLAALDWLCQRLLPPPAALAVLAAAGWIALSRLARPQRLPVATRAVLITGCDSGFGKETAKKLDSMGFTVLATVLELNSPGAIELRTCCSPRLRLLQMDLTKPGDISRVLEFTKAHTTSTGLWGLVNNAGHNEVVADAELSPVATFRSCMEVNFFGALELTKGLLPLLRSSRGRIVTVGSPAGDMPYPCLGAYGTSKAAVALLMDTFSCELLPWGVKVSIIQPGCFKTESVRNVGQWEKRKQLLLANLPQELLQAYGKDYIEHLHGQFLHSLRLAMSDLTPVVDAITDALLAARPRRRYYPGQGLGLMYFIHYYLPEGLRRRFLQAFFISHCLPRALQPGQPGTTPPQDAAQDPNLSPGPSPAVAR
The experiment in a line: 11beta-HSD2 enzyme assay, human recombinant enzyme. Particulars: cortisol/NAD, read-out: Inhibition of human 11-beta HSD-2 IC50.
Source text: as §1

T3 sequence (P28845 whole entry): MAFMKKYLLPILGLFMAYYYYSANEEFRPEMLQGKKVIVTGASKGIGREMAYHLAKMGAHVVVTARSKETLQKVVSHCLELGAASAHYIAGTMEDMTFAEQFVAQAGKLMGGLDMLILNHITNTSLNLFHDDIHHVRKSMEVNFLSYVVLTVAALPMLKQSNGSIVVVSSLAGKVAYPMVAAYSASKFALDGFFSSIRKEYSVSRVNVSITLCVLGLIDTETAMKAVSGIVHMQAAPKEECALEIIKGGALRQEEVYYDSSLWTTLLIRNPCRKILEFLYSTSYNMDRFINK
T1 sequence (P50172 whole entry): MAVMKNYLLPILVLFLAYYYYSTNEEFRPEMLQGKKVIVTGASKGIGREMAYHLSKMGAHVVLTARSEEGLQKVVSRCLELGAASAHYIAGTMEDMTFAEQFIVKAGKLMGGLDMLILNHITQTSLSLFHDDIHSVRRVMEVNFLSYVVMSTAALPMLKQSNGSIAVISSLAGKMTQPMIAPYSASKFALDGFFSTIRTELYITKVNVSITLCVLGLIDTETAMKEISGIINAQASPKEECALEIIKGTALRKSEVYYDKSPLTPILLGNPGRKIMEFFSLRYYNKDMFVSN
T2 sequence (P16232 whole entry): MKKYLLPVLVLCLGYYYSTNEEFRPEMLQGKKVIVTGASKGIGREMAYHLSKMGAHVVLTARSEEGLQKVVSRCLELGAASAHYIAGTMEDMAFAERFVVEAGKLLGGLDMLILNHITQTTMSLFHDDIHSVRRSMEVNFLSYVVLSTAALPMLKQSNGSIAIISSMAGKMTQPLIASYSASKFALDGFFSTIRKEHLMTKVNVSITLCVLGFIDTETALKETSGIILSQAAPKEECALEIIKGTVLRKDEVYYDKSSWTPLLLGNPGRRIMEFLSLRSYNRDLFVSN

As to `O=C(C1CCCCC1)N1CCC(c2c[nH]c3ncccc23)C1` (stereo not shown) [Ex. 3, (Cycloxexyl)-[3-(1H-pyrrolo[2,3-b]pyridine-3-yl)-pyrrolidine-1-yl]-methanone], the half-inhibitory concentration (IC50) was determined as 950 nM on mouse 11-beta HSD-1, 510 nM on rat 11-beta HSD-1 and 540 nM on human 11-beta HSD-1.

Turning to `CN(C)c1ccc(C(=O)N2CCC(c3c[nH]c4ncccc34)C2)cc1` (stereo not shown) [Ex. 7, (4-Dimethylaminophenyl)-[3-(1H-pyrrolo[2,3-b]pyridine-3-yl)-pyrrolidine-1-yl]-methanone], the half-maximal inhibitory concentration (IC50) at mouse 11-beta HSD-1 is 170 nM; on rat 11-beta HSD-1 it was 43 nM; at human 11-beta HSD-2 it was over 10000 nM.

For `O=C(N1CCC(c2c[nH]c3ncccc23)C1)C1(c2ccccc2)CC1` (stereo not shown) [Ex. 8, (1-Phenyl-cyclopropyl)-[3-(1H-pyrrolo[2,3-b]pyridine-3-yl)-pyrrolidine-1-yl]-methanone], the IC50 at rat 11-beta HSD-1 came to 48 nM. At human 11-beta HSD-1, the concentration for half-maximal inhibition (IC50) worked out at 50 nM and the “Selectivity Ratio human HSD2/HSD1” value is over 200.

For `CC(C)(C(=O)N1CCC(c2c[nH]c3ncccc23)C1)c1ccc(Cl)cc1` (stereo not shown) [Ex. 9, 2-(4-Chlorophenyl)-2-methyl-1-[3-(1H-pyrrolo[2,3-b]pyridine-3-yl)-pyrrolidine-1-yl]-propan-1-one], the 50% inhibitory concentration (IC50) at rat 11-beta HSD-1 stood at 920 nM. Also, at human 11-beta HSD-1, the IC50 was 9.8 nM and the Selectivity Ratio human HSD2/HSD1 is over 1000.

As for `CC(C)(C(=O)N1CCC(c2c[nH]c3ncccc23)CC1)N1CCN(c2ccc(C(F)(F)F)cn2)CC1` [Ex. 13, 2-Methyl-1-[4-(1H-pyrrolo[2,3-b]pyridin-3-yl)-piperidine-1-yl]-2-[4-(5-trifluoromethyl-pyridine-2-yl)-piperazine-1-yl]-propan-1-one], at human 11-beta HSD-1, the IC50 is 1140 nM.

Consider `CC(C)(COc1ccc(F)cc1)CC(=O)N1CCC(c2c[nH]c3ncccc23)CC1` [Ex. 14, 4-(4-Fluoro-phenoxy)-3,3-dimethyl-1-[4-(1H-pyrrolo[2,3-b]pyridine-3-yl)-piperidine-1-yl]-butan-1-one], for which the “Inhibition of mouse 11-beta HSD-1, activity in % of Ctrl” value at mouse 11-beta HSD-1 (at 1 μM) is listed as 86% of Ctrl. Also, on rat 11-beta HSD-1 (at 1 μM), the “Inhibition of rat 11-beta HSD-1, activity in % of Ctrl” value was 85% of Ctrl. Further, the IC50 at human 11-beta HSD-1 was 110 nM.

On to `CC(C)(COc1ccc(F)cc1)CC(=O)N1CCC(c2c[nH]c3ncccc23)C1` (stereo not shown) [Ex. 17, 4-(4-Fluoro-phenoxy)-3,3-dimethyl-1-[3-(1H-pyrrolo[2,3-b]pyridine-3-yl)-pyrrolidine-1-yl]-butan-1-one], for which the 50% inhibitory concentration (IC50) was 2100 nM on mouse 11-beta HSD-1 and 16 nM at human 11-beta HSD-1.

As to `O=C(CS(=O)(=O)c1ccc(Cl)cc1)N1CCC(c2c[nH]c3ncccc23)C1` (stereo not shown) [Ex. 20, 2-(4-Chloro-benzenesulfonyl)-1-[3-(1H-pyrrolo[2,3-b]pyridine-3-yl)-pyrrolidine-1-yl]-ethanone], the 50% inhibitory concentration (IC50) at human 11-beta HSD-1 was found to be 29 nM.

Source of the values: patent US8470849B2, “7-azaindole derivatives as selective 11-β-hydroxysteroid dehydrogenase type 1 inhibitors” (Merck Patent GmbH, priority 2007, dated 2013).
